Results on two compounds are retold here after ChEMBL document CHEMBL4033771, “Development of Potent Myostatin Inhibitory Peptides through Hydrophobic Residue-Directed Structural Modification” (ACS Med Chem Lett, 2017).

Calls of active or inactive are those of the source. The rule behind the calls is not given here. Where a SMILES comes first, the peptide text is derived from it. The star is where a group is joined. Acetyl(2-naphthyloxy) = O=C(COc1ccc2ccccc2c1)*

The subject of experiment [1] is Mus musculus. The experiment in a line: Increase in tibialis anterior muscle weight in wild type mouse at 20 nmol, im after 28 days relative to control. The experiment is classed as functional.
In experiment [2] the test system is Mus musculus. The experiment in a line: Increase in tibialis anterior muscle weight in caveolin 3-deficient limb gridle muscular destrophy 1C mouse model at 20 nmol, im after 28 days relative to control. It counts as functional.
The subject of experiment [3] is Mus musculus. As to the kind of experiment: Increase in tibialis anterior muscle weight in mdx mouse at 0.75 mM, im administered on day 0 and 14 measured on day 42 relative to control. The experiment is classed as functional.
The test system of experiment [4] is Mus musculus. The experiment in a line: Increase in tibialis anterior muscle weight in wild type ICR mouse at 0.75 mM, im administered on day 0 and 14 measured on day 42 relative to control. It counts as functional.
Experiment [5] relates to Mus musculus. As to the kind of experiment: Increase in gastrocnemius muscle weight in wild type ICR mouse at 0.75 mM, im administered on day 0 and 14 measured on day 42 relative to control. The experiment is classed as functional.
Experiment [6] relates to Mus musculus. As to the kind of experiment: Increase in gastrocnemius muscle fiber size in mdx mouse at 0.75 mM, im administered on day 0 and 14 measured on day 42 by Hematoxylin and Eosin staining based assay. The experiment is classed as functional, organism-based.

As to `CC[C@H](C)[C@H](NC(=O)[C@H](C)NC(=O)[C@H](CCC(=O)O)NC(=O)[C@@H](NC(=O)[C@H](CCCNC(=N)N)NC(=O)[C@H](CO)NC(=O)[C@H](Cc1ccc(O)cc1)NC(=O)[C@H](CCCNC(=N)N)NC(=O)[C@@H](NC(=O)[C@H](CC(N)=O)NC(=O)[C@H](CCC(N)=O)NC(=O)[C@H](CCCNC(=N)N)NC(=O)[C@H](Cc1c[nH]c2ccccc12)NC(=O)[C@H](C)NC(=O)[C@@H](N)CS)[C@@H](C)O)[C@@H](C)CC)C(=O)N[C@@H](CCCCN)C(=O)N[C@H](C(=O)N[C@@H](CCC(N)=O)C(=O)N[C@H](C(=O)N[C@@H](CC(C)C)C(=O)N[C@@H](CO)C(=O)N[C@@H](CCCCN)C(=O)N[C@@H](CC(C)C)C(=O)N[C@@H](CCCNC(=N)N)C(=O)N[C@@H](CC(C)C)C(=O)N[C@@H](CCC(=O)O)C(=O)N[C@H](C(=O)N[C@@H](C)C(=O)N1CCC[C@H]1C(N)=O)[C@@H](C)O)[C@@H](C)CC)[C@@H](C)CC` (H-CAWRQNTRYSRIEAIKIQILSKLRLETAP-NH2), the Activity in the experiment with Mus musculus [1] is on record as 10.6%; in the experiment on Mus musculus [2], 20.6%.

With `CC[C@H](C)[C@H](NC(=O)[C@H](CCCNC(=N)N)NC(=O)[C@H](CO)NC(=O)[C@H](Cc1ccc(O)cc1)NC(=O)[C@H](CCCNC(=N)N)NC(=O)[C@@H](NC(=O)[C@H](CC(N)=O)NC(=O)[C@H](CCC(N)=O)NC(=O)[C@H](CCCNC(=N)N)NC(=O)COc1ccc2ccccc2c1)[C@@H](C)O)C(=O)N[C@@H](CCC(=O)O)C(=O)N[C@@H](Cc1c[nH]c2ccccc12)C(=O)N[C@H](C(=O)N[C@@H](CCCCN)C(=O)N[C@H](C(=O)N[C@@H](CCC(N)=O)C(=O)N[C@H](C(=O)N[C@H](C(=O)N[C@@H](CO)C(=O)N[C@@H](CCCCN)C(=O)N[C@@H](CC(C)C)C(=O)N[C@@H](CCCNC(=N)N)C(=O)N[C@@H](CC(C)C)C(N)=O)[C@@H](C)CC)[C@@H](C)CC)[C@@H](C)CC)[C@@H](C)CC` ({Acetyl(2-naphthyloxy)}-RQNTRYSRIEWIKIQIISKLRL-NH2), the Activity in the experiment on Mus musculus [3] is listed as 10 - 19%; with Mus musculus [4] it was 10 - 34%; in the experiment with Mus musculus [5], 11 - 35%. Besides, in the experiment on Mus musculus [6], the outcome was Active.
